Assay results taken from patent US20070249670A1, “Glycogen Phosphorylase Inhibitor Compounds and Pharmaceutical Compositions Thereof” (SMITHKLINE BEECHAM CORPORATION, priority 2004, published 2007).

molecular target: T1, human liver glycogen phosphorylase a (HLGPa) (Homo sapiens, UniProt P06737); assay: Human liver glycogen phosphorylase a enzymatic activity assay (coupled, fluorescent resorufin readout, with and without 10 mM glucose); assay type: biochemical; settings: human liver glycogen phosphorylase a enzymatic activity assay
T1 construct: creating a full-length cDNA fused at the 5′ end to codons for methionine-glycine-alanine-histidine; 6xHis tag (leader Met-Gly-Ala-His6-Gly-Gly) (N); made in house; host or cells: E. coli (bacterial expression plasmid pTXK1007LTev)
T1 sequence (P06737 2-847 limits assumed): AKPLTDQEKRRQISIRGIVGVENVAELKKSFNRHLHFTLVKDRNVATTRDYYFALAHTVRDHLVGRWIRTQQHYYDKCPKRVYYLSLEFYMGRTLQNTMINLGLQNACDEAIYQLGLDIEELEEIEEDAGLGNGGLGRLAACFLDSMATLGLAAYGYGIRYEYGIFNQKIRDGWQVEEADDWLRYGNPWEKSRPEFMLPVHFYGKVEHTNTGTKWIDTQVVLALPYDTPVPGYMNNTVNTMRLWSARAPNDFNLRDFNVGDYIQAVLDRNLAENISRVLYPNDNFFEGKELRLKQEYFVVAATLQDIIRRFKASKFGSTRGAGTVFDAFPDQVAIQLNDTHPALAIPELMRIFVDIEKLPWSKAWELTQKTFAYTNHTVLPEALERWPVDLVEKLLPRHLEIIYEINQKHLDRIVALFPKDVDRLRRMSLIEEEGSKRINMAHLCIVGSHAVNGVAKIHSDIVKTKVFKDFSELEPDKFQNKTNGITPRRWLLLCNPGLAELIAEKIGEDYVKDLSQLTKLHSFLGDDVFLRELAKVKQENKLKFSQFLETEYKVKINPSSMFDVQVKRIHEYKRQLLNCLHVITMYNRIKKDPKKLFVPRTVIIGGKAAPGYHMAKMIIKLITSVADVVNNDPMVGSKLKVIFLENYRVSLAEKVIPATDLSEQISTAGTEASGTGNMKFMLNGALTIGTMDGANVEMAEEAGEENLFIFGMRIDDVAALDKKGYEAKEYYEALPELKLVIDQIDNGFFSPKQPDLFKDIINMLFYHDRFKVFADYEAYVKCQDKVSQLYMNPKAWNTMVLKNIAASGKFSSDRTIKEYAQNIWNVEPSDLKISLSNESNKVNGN

Compound	IC50 [µM]
Cc1cccc(C)c1NC(=O)Nc1ccccc1C(=O)N[C@H](C(=O)O)C1CCCCC1 [Example 94, (2S)-cyclohexyl{[2-({[(2,6-dimethylphenyl)amino]carbonyl}amino)benzoyl]amino}acetic acid]	0.53
Cc1ccccc1NC(=O)Nc1cc2ccccc2cc1C(=O)NC(C(=O)O)c1ccccc1 (stereo not shown) [Example 95, {[3-({[(2-methylphenyl)amino]carbonyl}amino)-2-naphthoyl]amino}(phenyl)acetic acid]	9.89
Cc1ccccc1NC(=O)Nc1cc2ccccc2cc1C(=O)N[C@@H](Cc1cccs1)C(=O)O [Example 96, N-{[3-({[(2-methylphenyl)amino]carbonyl}amino)-2-naphthalenyl]carbonyl}-3-(2-thienyl)-L-alanine]	5.07
Cc1cccc(C)c1NC(=O)Nc1cc2ccccc2cc1C(=O)NC(C(=O)O)c1ccccc1 (stereo not shown) [Example 97, {[3-({[(2,6-dimethylphenyl)amino]carbonyl}amino)-2-naphthoyl]amino}(phenyl)acetic acid]	0.66
Cc1cccc(C)c1NC(=O)Nc1cc2ccccc2cc1C(=O)N[C@@H](CC1CCCCC1)C(=O)O [Example 99, 3-cyclohexyl-N-[3-({[(2,6-dimethylphenyl)amino]carbonyl}amino)-2-naphthoyl]-L-alanine]	0.49
O=C(Nc1ccccc1Cl)Nc1cc2ccccc2cc1C(=O)NC(C(=O)O)c1ccccc1 (stereo not shown) [Example 100, {[3-({[(2-chlorophenyl)amino]carbonyl}amino)-2-naphthoyl]amino}(phenyl)acetic acid]	7.63
Cc1cccc(Cl)c1NC(=O)Nc1cc2ccccc2cc1C(=O)N[C@@H](Cc1cccs1)C(=O)O [Example 102, N-{[3-({[(2-chloro-6-methylphenyl)amino]carbonyl}amino)-2-naphthalenyl]carbonyl}-3-(2-thienyl)-L-alanine]	0.36
Cc1cc(C)c(NC(=O)Nc2cc3ccccc3cc2C(=O)NC(C(=O)O)c2ccccc2)c(C)c1 (stereo not shown) [Example 103, Phenyl({[3-({[(2,4,6-trimethylphenyl)amino]carbonyl}amino)-2-naphthalenyl]carbonyl}amino)acetic acid]	0.06
COc1cc(NC(=O)Nc2c(C)cc(C)cc2C)c(C(=O)NC(C(=O)O)c2ccccc2)cc1OC (stereo not shown) [Example 106, [(2-{[(mesitylamino)carbonyl]amino}-4,5-dimethoxybenzoyl)amino](phenyl)acetic acid]	4.23
COc1cc(NC(=O)Nc2c(C)cccc2Cl)c(C(=O)NC(C(=O)O)c2ccccc2)cc1OC (stereo not shown) [Example 107, {[2-({[(2-chloro-6-methylphenyl)amino]carbonyl}amino)-4,5-dimethoxybenzoyl]amino}(phenyl)acetic acid]	12.2
Cc1cccc(Cl)c1NC(=O)Nc1cc(F)c(F)cc1C(=O)N[C@H](C(=O)O)C1CCCCC1 [Example 112, (2S)-{[2-({[(2-chloro-6-methylphenyl)amino]carbonyl}amino)-4,5-difluorobenzoyl]amino}(cyclohexyl)acetic acid]	0.86
COc1cc(NC(=O)Nc2c(C)cccc2C)c(C(=O)N[C@H](C(=O)O)C2CCCCC2)cc1OC [Example 117, (2S)-cyclohexyl{[2-({[(2,6-dimethylphenyl)amino]carbonyl}amino)-4,5-dimethoxybenzoyl]amino}acetic acid]	14.7
Cc1cccc(C)c1NC(=O)Nc1cc(F)c(F)cc1C(=O)N[C@@H](CC1CCCCC1)C(=O)O [Example 118, 3-cyclohexyl-N-[2-({[(2,6-dimethylphenyl)amino]carbonyl}amino)-4,5-difluorobenzoyl]-L-alanine]	15.7
COc1cc(NC(=O)Nc2c(C)cccc2C)c(C(=O)N[C@@H](CC2CCCCC2)C(=O)O)cc1OC [Example 119, 3-cyclohexyl-N-[2-({[(2,6-dimethylphenyl)amino]carbonyl}amino)-4,5-dimethoxybenzoyl]-L-alanine]	13.6
CCc1cccc(CC)c1NC(=O)Nc1cc2ccccc2cc1C(=O)NC(C(=O)O)c1ccccc1 (stereo not shown) [Example 120, {[3-({[(2,6-diethylphenyl)amino]carbonyl}amino)-2-naphthoyl]amino}(phenyl)acetic acid]	24.6
CCc1cccc(CC)c1NC(=O)Nc1cc(Cl)ccc1C(=O)N[C@H](Cc1ccccc1F)C(=O)O [Example 121, N-[4-chloro-2-({[(2,6-diethylphenyl)amino]carbonyl}amino)benzoyl]-2-fluoro-D-phenylalanine]	3.44
Cc1cccc(Cl)c1NC(=O)Nc1cc2ccccc2cc1C(=O)N[C@@H](CC1CCCCC1)C(=O)O [Example 122, N-[3-({[(2-chloro-6-methylphenyl)amino]carbonyl}amino)-2-naphthoyl]-3-cyclohexyl-L-alanine]	2.23
Cc1cccc(Cl)c1NC(=O)Nc1cc2ccccc2cc1C(=O)NC(C(=O)O)c1ccccc1 (stereo not shown) [Example 123]	0.27
Cc1cccc(Cl)c1NC(=O)Nc1cc2ccccc2cc1C(=O)N[C@H](Cc1ccccc1F)C(=O)O [Example 124, N-[3-({[(2-chloro-6-methylphenyl)amino]carbonyl}amino)-2-naphthoyl]-2-fluoro-D-phenylalanine]	5.82
Cc1cccc(Cl)c1NC(=O)Nc1cc(Cl)ccc1C(=O)N[C@@H](CC1CCCCC1)C(=O)O [Example 125, N-[4-chloro-2-({[(2-chloro-6-methylphenyl)amino]carbonyl}amino)benzoyl]-3-cyclohexyl-L-alanine]	28.6
CC[C@H](C)[C@H](NC(=O)c1c(NC(=O)Nc2c(C)cccc2C)sc2c1CCCC2)C(=O)O [Example 126, N-{[2-({[(2,6-dimethylphenyl)amino]carbonyl}amino)-4,5,6,7-tetrahydro-1-benzothien-3-yl]carbonyl}-L-isoleucine]	13.9
CC[C@H](C)[C@H](NC(=O)c1c(NC(=O)Nc2c(C)cc(C)cc2C)sc2c1CCCC2)C(=O)O [Example 127, N-[(2-{[(mesitylamino)carbonyl]amino}-4,5,6,7-tetrahydro-1-benzothien-3-yl)carbonyl]-L-isoleucine]	18.2

Further compounds by falling IC50, results first:

IC50 [µM]	Compound
19.8	Cc1cccc(C(C)C)c1NC(=O)Nc1cc2ccccc2cc1C(=O)N[C@@H](C(=O)O)C1CCCCC1 [Example 109, (2R)-cyclohexyl{[3-({[(2-isopropyl-6-methylphenyl)amino]carbonyl}amino)-2-naphthoyl]amino}acetic acid]
19.6	COc1cc(NC(=O)Nc2c(C)cccc2C)c(C(=O)NC(C(=O)O)c2ccccc2)cc1OC (stereo not shown) [Example 105, {[2-({[(2,6-dimethylphenyl)amino]carbonyl}amino)-4,5-dimethoxybenzoyl]amino}(phenyl)acetic acid]
18.7	Cc1cccc(Cl)c1NC(=O)Nc1cc(F)c(F)cc1C(=O)N[C@@H](CC1CCCCC1)C(=O)O [Example 114, N-[2-({[(2-chloro-6-methylphenyl)amino]carbonyl}amino)-4,5-difluorobenzoyl]-3-cyclohexyl-L-alanine]
13	COc1cc(NC(=O)Nc2c(C)cccc2Cl)c(C(=O)N[C@@H](CC2CCCCC2)C(=O)O)cc1OC [Example 115, N-[2-({[(2-chloro-6-methylphenyl)amino]carbonyl}amino)-4,5-dimethoxybenzoyl]-3-cyclohexyl-L-alanine]
7.04	COc1cc(NC(=O)Nc2c(C)cccc2Cl)c(C(=O)N[C@H](C(=O)O)C2CCCCC2)cc1OC [Example 113, (2S)-{[2-({[(2-chloro-6-methylphenyl)amino]carbonyl}amino)-4,5-dimethoxybenzoyl]amino}(cyclohexyl)acetic acid]
2.78	O=C(Nc1ccccc1Cl)Nc1cc2ccccc2cc1C(=O)N[C@@H](Cc1cccs1)C(=O)O [Example 101, N-{[3-({[(2-chlorophenyl)amino]carbonyl}amino)-2-naphthalenyl]carbonyl}-3-(2-thienyl)-L-alanine]
1.63	Cc1cccc(C)c1NC(=O)Nc1cc(F)c(F)cc1C(=O)N[C@H](C(=O)O)C1CCCCC1 [Example 116, (2S)-cyclohexyl{[2-({[(2,6-dimethylphenyl)amino]carbonyl}amino)-4,5-difluorobenzoyl]amino}acetic acid]
1.04	Cc1cccc(C(C)C)c1NC(=O)Nc1cc2ccccc2cc1C(=O)NC(C(=O)O)c1ccccc1 (stereo not shown) [Example 104, {[3-({[(2-isopropyl-6-methylphenyl)amino]carbonyl}amino)-2-naphthoyl]amino}(phenyl)acetic acid]
0.54	Cc1cccc(C)c1NC(=O)Nc1cc2ccccc2cc1C(=O)N[C@@H](Cc1cccs1)C(=O)O [Example 98, N-{[3-({[(2,6-dimethylphenyl)amino]carbonyl}amino)-2-naphthalenyl]carbonyl}-3-(2-thienyl)-L-alanine]
